Where only a bound is given, the exact number is not on record here.

Experiment [1] deals with recombinant human SGK-1 enzyme (Homo sapiens, UniProt O00141). Put plainly: Enzymatic activity assay: SGK-1 substrate peptide phosphorylation (Caliper lab-chip mobility shift). It counts as biochemical. Particulars: peptide substrate 1 μM, ATP 10 μM, 60 min at 37° C., read-out: IC50 values for inhibition of SGK-1 enzymatic activity. On the procedure:
In one of the cellular assays, the SGK-1 dependent phosphorylation of glycogen synthase kinase 3beta (GSK3beta) in U2OS cells was measured, in another one, a functional electrophysiological assay, the SGK-1 dependent activation of epithelial Na^+ channel (ENaC) currents in A6 cell monolayers, and in another one chondrocyte hypertrophic differentiation in mouse chondrogenic ATDC5 cells.
A) Enzymatic Activity Assay
For the determination of the compound dose response, a 10 mM DMSO stock solution was diluted and tested in a ten-point, three-fold dilution series run in duplicate beginning at 30 μM final concentration. Data were analyzed using a four-parameter curve fit with a fixed minimum and maximum experimentally defined as the average positive and negative controls on each plate.

For experiment [2], the system named is SGK-1 dependent phosphorylation of GSK3beta in U2OS cells. Put plainly: SGK-1 dependent phosphorylation of GSK3beta in U2OS cells overexpressing recombinant SGK-1 and GSK3beta. As to conditions: U2OS cells, 6 h incubation, ratio of phosphorylated GSK3beta to total GSK3beta; read-out: IC50 values for inhibition of SGK-1 dependent phosphorylation of GSK3beta in U2OS cells. In kind it is cell-based, human. On the procedure: B) Determination of the Effect on SGK-1 Dependent Phosphorylation of GSK3beta in U2OS Cells
U2OS cells were cultured in 1:1 Dulbecco modified Eagle medium/Ham's F12 and 10% heat-inactivated fetal calf serum (FCS Gold) at 37° C., 7% CO2 and 95% relative humidity. […] Cell suspension mixed with BacMam viruses was seeded in 96 well pCLEAR plates (Greiner) at 3×10^4 cells per well in 250 μl medium. […] 1 μl of a solution of the test compound at 250×final concentration was added. Cells are incubated at 37° C., 7% CO2 and 95% relative humidity. […] After removing the fixation solution, cells were permeabilised by adding 200 μl PBT (0.2% Triton X-100 in PBS) per well for 5 min. After removing PBT, cells were blocked by adding 200 μl of blocking solution (1% bovine serum albumine in PBS) per well. Blocking solution was removed and 50 μl of primary antibody (rabbit anti-phospho-GSK-3beta (Ser9), and mouse anti-GSK-3beta) were added for 1 h. […] After washing the cells 3 times with PBS, 200 μl of PBS were added. Fluorescence signals were measured with the ImageXpress MICRO (Molecular Devices).

Sequence of recombinant human SGK-1 enzyme (O00141 whole entry, looked up): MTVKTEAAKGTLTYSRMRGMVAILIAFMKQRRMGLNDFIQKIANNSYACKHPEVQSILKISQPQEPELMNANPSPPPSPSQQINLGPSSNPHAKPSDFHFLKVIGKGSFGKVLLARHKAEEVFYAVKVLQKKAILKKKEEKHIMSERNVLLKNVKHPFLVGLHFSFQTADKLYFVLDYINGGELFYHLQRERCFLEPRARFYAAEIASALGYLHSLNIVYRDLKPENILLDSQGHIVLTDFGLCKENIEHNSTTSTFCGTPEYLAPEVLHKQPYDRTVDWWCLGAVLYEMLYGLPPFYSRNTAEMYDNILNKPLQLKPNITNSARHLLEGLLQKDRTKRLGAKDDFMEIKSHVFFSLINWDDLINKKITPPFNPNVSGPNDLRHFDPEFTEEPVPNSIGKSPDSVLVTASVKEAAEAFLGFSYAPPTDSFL

For the molecule `CC(C)COc1nc(-c2ccc(NS(=O)(=O)c3cc(Cl)ccc3F)cc2)nc2[nH]nc(N)c12` [Example 334], the results for the IC50 in experiment [1] and in experiment [2] were 20 nM and 720 nM, respectively.
Taken in the same sequence, the figures for `Cc1ccc(C#N)c(S(=O)(=O)Nc2ccc(-c3nc(OC4CCNCC4F)c4c(C)n[nH]c4n3)cc2)c1` (stereo not drawn) [Example 300] were 1.1 nM and 92 nM.
Take `Cc1nc(-c2ccc(NS(=O)(=O)c3cc(F)c(F)c(F)c3)cc2)nc2[nH]nc(N)c12` [Example 165]: the values for the IC50 in experiment [1] and in experiment [2] were 110 nM and 970 nM, respectively.
Consider `Cc1nc(-c2ccc(NS(=O)(=O)c3ccc(F)cc3Cl)cc2)nc2[nH]nc(N)c12` [Example 164], for which the IC50 came out at 40 nM in experiment [1] and 600 nM in experiment [2].
As for `Nc1n[nH]c2cc(-c3ccc(NS(=O)(=O)c4cc(Cl)ccc4F)cc3)ncc12` [Example 559], the values for the half-inhibitory concentration (IC50) in experiment [1] and in experiment [2] were 19 nM and 390 nM, respectively.
In the case of `COc1ccc(Cl)c(S(=O)(=O)Nc2ccc(-c3nc(OC4CCC(O)CC4)c4c(C)n[nH]c4n3)cc2)c1` (stereo not drawn) [Example 102], the IC50 in experiment [1] is 1.7 nM; in experiment [2], 380 nM.
Taken in the same sequence, the figures for `COc1ccc(Cl)c(S(=O)(=O)Nc2ccc(-c3nc(OCCC(N)=O)c4cn[nH]c4n3)cc2)c1` [Example 117] were 2.3 nM and 6800 nM.
Consider `Cc1n[nH]c2nc(-c3ccc(NS(=O)(=O)c4cc(F)ccc4F)cc3)nc(OC3CCNCC3F)c12` (stereo not drawn) [Example 296], for which the values for the IC50 in experiment [1] and in experiment [2] were 2.7 nM and 60 nM, respectively.
As to `Cc1n[nH]c2nc(-c3ccc(NS(=O)(=O)c4cc(Cl)ccc4Cl)cc3)nc(OC3CCC(O)CC3)c12` (stereo not drawn) [Example 214], the IC50 in experiment [1] was 69 nM; in experiment [2] it was 130 nM.
Consider `COCCc1nc(-c2ccc(NS(=O)(=O)c3cc(C)ccc3F)cc2)nc2[nH]nc(N)c12` [Example 503], for which the half-inhibitory concentration (IC50) is 29 nM in experiment [1] and 630 nM in experiment [2].
Taken in the same sequence, the figures for `Cc1n[nH]c2nc(-c3ccc(NS(=O)(=O)c4cc(Cl)ccc4Cl)cc3)nc(OCCCN)c12` [Example 210] were less than 1.5 nM and 98 nM.
The corresponding values for `Cc1ccc(C#N)c(S(=O)(=O)Nc2ccc(-c3nc(OCC4CNC(=O)C4)c4cn[nH]c4n3)cc2)c1` (stereo not drawn) [Example 125] are 2 nM and 12000 nM.
`Cc1ccc(C#N)c(S(=O)(=O)Nc2ccc(-c3nc(OCC(C)C)c4c(N)n[nH]c4n3)cc2)c1` [Example 333]: the IC50 in experiment [1] came out at 14 nM; in experiment [2] it was 1300 nM.
The corresponding values for `Cc1ccc(F)c(S(=O)(=O)Nc2ccc(-c3nc(OC4C[C@@H](O)C[C@@H](O)C4)c4cn[nH]c4n3)cc2)c1` (stereo partly drawn) [Example 119] are less than 1.5 nM and 11000 nM.
As for `COc1ccc(F)c(S(=O)(=O)Nc2ccc(-c3nc(OCC4CNCCO4)c4cn[nH]c4n3)cc2)c1` (stereo not drawn) [Example 309], the concentration for half-maximal inhibition (IC50) is 2.8 nM in experiment [1] and 160 nM in experiment [2].
The corresponding values for `COc1ccc(Cl)c(S(=O)(=O)Nc2ccc(-c3nc(OCC4CNCCO4)c4cn[nH]c4n3)cc2)c1` (stereo not drawn) [Example 306] are 7.1 nM and 19 nM.
Taken in the same sequence, the figures for `O=S(=O)(Nc1ccc(-c2nc(OC3CNC3)c3cn[nH]c3n2)cc1F)c1cc(Cl)ccc1F` [Example 442] were 29 nM and 1300 nM.
Taken in the same sequence, the figures for `Cc1nc(-c2ccc(NS(=O)(=O)c3cccc(F)c3C#N)cc2)nc2[nH]nc(N)c12` [Example 474] were 12 nM and 11000 nM.
Take `COCCc1nc(-c2ccc(NS(=O)(=O)c3cc(Cl)ccc3Cl)cc2)nc2[nH]nc(N)c12` [Example 505]: the IC50 in experiment [1] is 47 nM; in experiment [2], 620 nM.
Taken in the same sequence, the figures for `Cc1n[nH]c2nc(-c3ccc(NS(=O)(=O)c4cc(Cl)ccc4F)cc3)nc(OC3CCCNC3)c12` (stereo not drawn) [Example 339] were 1.3 nM and 45 nM.
As to `COc1ccc(Cl)c(S(=O)(=O)Nc2ccc(-c3nc(OC4CCNCC4F)c4c(C)n[nH]c4n3)cc2)c1` (stereo not drawn) [Example 304], the IC50 was found to be 2.3 nM in experiment [1] and 130 nM in experiment [2].
Taken in the same sequence, the figures for `Cc1nc(-c2ccc(NS(=O)(=O)c3cc4c(cc3Br)OCCCO4)cc2)nc2[nH]nc(N)c12` [Example 477] were 4.8 nM and 4500 nM.
As for `CC(C)COc1nc(-c2ccc(NS(=O)(=O)c3cccc(F)c3Cl)cc2)nc2[nH]nc(N)c12` [Example 324], the IC50 in experiment [1] and in experiment [2] was 330 nM each time.
On to `Cc1ccc(C#N)c(S(=O)(=O)Nc2ccc(-c3nc(OC4CCN(CCF)CC4)c4c(C)n[nH]c4n3)cc2)c1` [Example 343], for which the concentration for half-maximal inhibition (IC50) in experiment [1] is 3.8 nM; in experiment [2], 68 nM.
With `O=S(=O)(Nc1ccc(-c2nc(N3CCNCC3)c3cn[nH]c3n2)cc1)c1cccc(Cl)c1Cl` [Example 15], the values for the IC50 in experiment [1] and in experiment [2] were less than 1.2 nM and 870 nM, respectively.
`Nc1n[nH]c2nc(-c3ccc(NS(=O)(=O)c4cc(Cl)sc4Cl)cc3)ncc12` [Example 463]: the figures for the half-maximal inhibitory concentration (IC50) in experiment [1] and in experiment [2] were 2.5 nM and 120 nM, respectively.
Taken in the same sequence, the figures for `COc1ccc(F)c(S(=O)(=O)Nc2ccc(-c3nc(OCC(C)C)c4c(N)n[nH]c4n3)cc2)c1` [Example 326] were 9.1 nM and 160 nM.
With `Cc1ccc(F)c(S(=O)(=O)Nc2ccc(-c3nc(OCCCC(N)=O)c4cn[nH]c4n3)cc2)c1` [Example 112], the IC50 in experiment [1] turned out to be 3.3 nM; in experiment [2], 3900 nM.
On to `Cc1ccc(F)c(S(=O)(=O)Nc2ccc(-c3ncc4c(C)n[nH]c4n3)cc2)c1` [Example 95], for which the figures for the IC50 in experiment [1] and in experiment [2] were less than 1.5 nM and 4600 nM, respectively.
As to `Cc1n[nH]c2nc(-c3ccc(NS(=O)(=O)c4cc(F)ccc4F)cc3)nc(OCC3CNCCO3)c12` (stereo not drawn) [Example 292], the IC50 in experiment [1] came to 14 nM; in experiment [2], 930 nM.
Taken in the same sequence, the figures for `Cc1ccc(F)c(S(=O)(=O)Nc2ccc(-c3nc(OCC4CNC(=O)C4)c4cn[nH]c4n3)cc2)c1` (stereo not drawn) [Example 107] were 2.5 nM and 3700 nM.
Consider `COCCc1nc(-c2ccc(NS(=O)(=O)c3cc(OC)ccc3Cl)cc2)nc2[nH]nc(N)c12` [Example 502], for which the IC50 in experiment [1] was found to be 18 nM; in experiment [2] it was 420 nM.
The corresponding values for `Cc1ccc(F)c(S(=O)(=O)Nc2ccc(-c3nc(OC4CCCNC4)c4c(C)n[nH]c4n3)cc2)c1` (stereo not drawn) [Example 338] are 1.6 nM and 44 nM.
Turning to `Cc1ccc(C#N)c(S(=O)(=O)Nc2ccc(-c3nc(OC4CCCNC4)c4c(C)n[nH]c4n3)cc2)c1` (stereo not drawn) [Example 320], the IC50 in experiment [1] was found to be 3.7 nM; in experiment [2], 57 nM.
The corresponding values for `COc1ccc(F)c(S(=O)(=O)Nc2ccc(-c3nc(OC4CCC(O)CC4)c4c(C)n[nH]c4n3)cc2)c1` (stereo not drawn) [Example 129] are less than 1.5 nM and 170 nM.
The corresponding values for `CC(C)COc1nc(-c2ccc(NS(=O)(=O)c3cc(Cl)sc3Cl)cc2)nc2[nH]nc(N)c12` [Example 330] are 100 nM and 230 nM.
Taken in the same sequence, the figures for `Nc1n[nH]c2nc(-c3ccc(NS(=O)(=O)c4cc(F)c(F)cc4Cl)cc3)ncc12` [Example 514] were 250 nM and 270 nM.
On to `COCCc1nc(-c2ccc(NS(=O)(=O)c3cc(OC)ccc3C#N)cc2)nc2[nH]nc(N)c12` [Example 521], for which the IC50 is 65 nM in experiment [1] and 480 nM in experiment [2].
As for `O=S(=O)(Nc1ccc(-c2nc(N3CC(O)C3)c3cn[nH]c3n2)cc1F)c1cc(Cl)ccc1Cl` [Example 437], the IC50 was determined as 100 nM in experiment [1] and 1800 nM in experiment [2].
`O=S(=O)(Nc1ccc(-c2nc(C3CC3)c3cn[nH]c3n2)cc1)c1cc(Cl)ccc1F` [Example 141]: the figures for the IC50 in experiment [1] and in experiment [2] were 6.5 nM and 150 nM, respectively.
As for `COc1ccc(Cl)c(S(=O)(=O)Nc2ccc(-c3nc(OCCCC(N)=O)c4cn[nH]c4n3)cc2)c1` [Example 113], the half-maximal inhibitory concentration (IC50) in experiment [1] was 3 nM; in experiment [2], 3600 nM.
`Cc1ccc(F)c(S(=O)(=O)Nc2ccc(-c3nc(N4CC(CO)C4)c4cn[nH]c4n3)cc2)c1` [Example 109]: the IC50 in experiment [1] was 16 nM; in experiment [2] it was 4600 nM.
Taken in the same sequence, the figures for `Cc1n[nH]c2nc(-c3ccc(NS(=O)(=O)c4cc(Cl)ccc4C#N)cc3)nc(OC3CCNCC3F)c12` (stereo not drawn) [Example 299] were 3.3 nM and 410 nM.
Taken in the same sequence, the figures for `Cc1nc(-c2ccc(NS(=O)(=O)c3cc(Cl)ccc3F)cc2)nc2[nH]nc(N)c12` [Example 466] were less than 1.5 nM and 260 nM.
As to `O=S(=O)(Nc1ccc(-c2nc(N3CCNCC3)c3cn[nH]c3n2)cc1)c1cc(Cl)ccc1F` [Example 16], the IC50 in experiment [1] was less than 1.2 nM; in experiment [2], 950 nM.

In general, IC50 refers to the concentration needed to halve the response being measured.

Values taken from US9718825B2, “N-(4-(azaindazol-6-yl)-phenyl)-sulfonamides and their use as pharmaceuticals” (priority 2013, dated 2017).
